One may read the IC50 as the midpoint of a concentration-inhibition curve. Read a low IC50 as inhibition by little substance.

This note sets out measurements from US9914724B2, “C-aryl glycosid derivatives, pharmaceutical composition, preparation process and uses thereof” (SHANGHAI DE NOVO PHARMATECH CO. LTD., priority 2014, dated 2018).

The target in one assay is T1, SGLT-2 (Homo sapiens, UniProt P31639).
T1 sequence (P31639 1-672): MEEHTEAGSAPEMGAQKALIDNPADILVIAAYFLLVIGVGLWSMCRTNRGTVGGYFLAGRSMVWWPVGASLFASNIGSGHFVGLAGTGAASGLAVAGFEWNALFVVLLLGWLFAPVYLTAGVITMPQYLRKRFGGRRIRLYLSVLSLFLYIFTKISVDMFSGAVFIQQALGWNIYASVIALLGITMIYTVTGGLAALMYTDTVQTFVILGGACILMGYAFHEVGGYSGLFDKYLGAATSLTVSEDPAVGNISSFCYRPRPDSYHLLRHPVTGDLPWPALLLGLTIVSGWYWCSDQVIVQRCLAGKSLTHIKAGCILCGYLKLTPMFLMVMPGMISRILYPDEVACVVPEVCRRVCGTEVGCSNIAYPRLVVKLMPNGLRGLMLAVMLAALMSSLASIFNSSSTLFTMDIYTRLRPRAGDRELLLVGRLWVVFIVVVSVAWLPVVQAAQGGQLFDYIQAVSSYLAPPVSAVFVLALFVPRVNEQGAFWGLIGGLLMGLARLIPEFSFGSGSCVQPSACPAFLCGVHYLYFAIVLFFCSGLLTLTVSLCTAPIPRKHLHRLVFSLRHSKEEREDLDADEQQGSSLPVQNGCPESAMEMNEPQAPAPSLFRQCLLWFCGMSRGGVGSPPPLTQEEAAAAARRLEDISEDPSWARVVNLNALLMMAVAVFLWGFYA
The experiment in a line: [14C]-AMG absorption in stable SGLT2 expressing Flp-in CHO cells (SGLT-2 activity screening assay). Type of assay: cell-based. The settings on record: 14C-AMG uptake, 37° C. 1 h, 1% DMSO. The source says:
(§1) Example 1: [^14C]-AMG Absorption in Stable SGLT1 and SGLT2 Expressing Flp-in CHO Cells (SGLT-1 and SGLT-2 Activity Screening Assay)
(§2) SGLT-1 and SGLT-2 cDNA clones were purchased from OriGene. After sequencing verification, the expression vectors were constructed based on pcDNA5/FRT using conventional molecular biology method. The expression vector was transfected into Flp-in CHO cells using Lipofectamin 2000. The transfected cells were subject hygromycin selection. The single clones of cells were selected by serial dilutions 4-5 weeks after transfection. The expression of SGLT-1 ? SGLT-2 were confirmed by RT-PCR and functional assay and cell line with strong signal was selected for subsequent study.
(§3) Culture of stable SGLT-1 and SGLT-2 expressing Flp-in CHO cell line: the culture media contain F12 medium (Invitrogen), 500 μg/ml hygromycin (Calbiochem) and 10% FBS (Invitrogen). Upon 80% confluency, the cells in the T75 flask were washed three times with PBS (Invitrogen), and 5 mL of Trpsin-EDTA solution (Invitrogen) was then added. The flask was gently rotated so that all the cells were submerged in the digestion solution. After the cells detach, 10 mL of culture medium was added and single cell suspension was prepared by pipetting up and down. The cell concentration was adjusted to 3×10^5/mL, 100 μL/well was added onto clear bottom 96-well plate (Corning).
(§4) The cells were ready for absorption assay once they attached after overnight culture. 12 h after cell plating, the cells were washed once with 150 μL/well absorption solution KRH-NMG (120 mM NMG, 4.7 mM KCl, 1.2 mM MgCl2, 2.2 mM CaCl2, 10 mM HEPES, pH 7.4 1 mM Tris). The solution was then removed from the well. 2.5 μCi/mL ^14C labeled AMG (PerkinElmer) Buffer KRH-Na+ (120 mM NaCl, 4.7 mM KCl, 1.2 mM MgCl2, 2.2 mM CaCl2, 10 mM HEPES, pH 7.4 1 mM Tris) was added at […] after washing with Buffer KRH-Na+ and KRH-NMG. The corresponding compound I was immediately added at 5 μL/well, ensuring the concentration of Dimethyl Sulfoxide was 1% (v/v). The plate was subsequently incubated at 37° C. for 1 h, after which 150 μL of ice cold wash buffer (120 mM NaCl, 4.7 mM KCl, 1.2 mM MgCl2, 2.2 mM CaCl2, 10 mM HEPES, 0.5 mM phlorizin, pH 7.4 1 mM Tris) was immediately added to terminate the reaction. Each well was washed three times with wash buffer and finally the solution was removed. Caution was taken to avoid cell detachment during the procedure. 20 μL/well of Lysis Buffer (0.1 mM NaOH) was added, the plate was vortexed at 900 rpm for 5 min. 80 μL/well of scintillation solution Microsint40 was added, and vortexed at 900 rpm for 5 min. The radioactivity was assayed using MicroBeta Trilux (PerkinElmer). The data was analyzed and IC50 of the compounds was calculated using XL-fit software.

The next assay concerns the target T2, SGLT-1 (Homo sapiens, UniProt P13866).
T2 sequence (P13866 1-664): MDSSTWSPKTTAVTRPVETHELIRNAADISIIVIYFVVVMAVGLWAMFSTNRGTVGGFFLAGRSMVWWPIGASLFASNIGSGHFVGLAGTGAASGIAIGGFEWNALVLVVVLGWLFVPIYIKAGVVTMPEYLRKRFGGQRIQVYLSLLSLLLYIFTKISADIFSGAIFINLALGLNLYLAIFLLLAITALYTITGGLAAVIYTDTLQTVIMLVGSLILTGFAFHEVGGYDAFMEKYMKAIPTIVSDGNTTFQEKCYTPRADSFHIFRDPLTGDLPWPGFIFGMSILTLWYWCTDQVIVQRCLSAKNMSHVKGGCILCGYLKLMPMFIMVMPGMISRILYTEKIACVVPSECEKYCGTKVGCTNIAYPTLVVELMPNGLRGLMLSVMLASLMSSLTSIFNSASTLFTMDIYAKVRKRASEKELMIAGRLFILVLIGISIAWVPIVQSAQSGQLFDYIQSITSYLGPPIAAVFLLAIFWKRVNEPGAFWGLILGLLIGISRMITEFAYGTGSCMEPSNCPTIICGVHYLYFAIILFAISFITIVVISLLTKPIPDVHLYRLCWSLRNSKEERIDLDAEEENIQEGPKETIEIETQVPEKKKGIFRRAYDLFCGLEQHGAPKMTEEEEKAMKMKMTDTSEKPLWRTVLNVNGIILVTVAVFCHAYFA
Put plainly: [14C]-AMG absorption in stable SGLT1 expressing Flp-in CHO cells (SGLT-1 activity screening assay). The settings on record: 14C-AMG uptake, 37° C. 1 h, 1% DMSO. The assay is classed as cell-based.
Description: as §1, §2, §3, §4

As for `Cc1ccc([C@@H]2O[C@H](CO)[C@@H](O)[C@H](O)[C@H]2O)cc1Cc1ccc(OCC2(C)OCc3ccccc32)cc1` (single isomer, unassigned) [Compound I-114], the IC50 on SGLT-2 was found to be 0.0052 µM; on SGLT-1, 0.997 µM. Taken in the same sequence, the figures for `OC[C@H]1O[C@@H](c2ccc(Cl)c(Cc3ccc(OC[C@H]4OCc5ccccc54)cc3)c2)[C@H](O)[C@@H](O)[C@@H]1O` [Compound I-37, (2S,3R,4R,5S,6R)-2-(4-chloro-3-(4-(((S)-1,3-dihydroisobenzofuran-1-yl)methoxy)benzyl)phenyl)-6-(hydroxymethyl)tetrahydro-2H-pyran-3,4,5-triol] were 0.002 µM and 0.615 µM. The matching figures for `OC[C@H]1O[C@@H](c2ccc(Cl)c(Cc3ccc(OCc4cc5ccc(F)cc5o4)cc3)c2)[C@H](O)[C@@H](O)[C@@H]1O` [Compound I-9, (2S,3R,4R,5S,6R)-2-(4-chloro-3-(4-((6-fluorobenzofuran-2-yl)methoxy)benzyl)phenyl)-6-(hydroxymethyl)tetrahydro-2H-pyran-3,4,5-triol]: 0.013 µM and 0.151 µM.

As for `Cc1ccc([C@@H]2O[C@H](CO)[C@@H](O)[C@H](O)[C@H]2O)cc1Cc1ccc(OCC2OCc3ccccc32)cc1` (stereo partly drawn) [Compound I-43, (2S,3R,4R,5S,6R)-2-(3-(4-((1,3-dihydroisobenzofuran-1-yl)methoxy)benzyl)-4-methylphenyl)-6-(hydroxymethyl)tetrahydro-2H-pyran-3,4,5-triol], the IC50 against SGLT-2 was found to be 0.0017 µM; against SGLT-1, 0.322 µM. Taken in the same sequence, the figures for `Cc1ccc([C@@H]2O[C@H](CO)[C@@H](O)[C@H](O)[C@H]2O)cc1Cc1ccc(OCc2cc3ccccc3o2)cc1` [Compound I-3, (2S,3R,4R,5S,6R)-2-(3-(4-(benzofuran-2-ylmethoxy)benzyl)-4-methylphenyl)-6-(hydroxymethyl)tetrahydro-2H-pyran-3,4,5-triol] were 0.0056 µM and 0.32 µM. The matching figures for `OC[C@H]1O[C@@H](c2ccc(F)c(Cc3ccc(OCc4cc5ccccc5o4)cc3)c2)[C@H](O)[C@@H](O)[C@@H]1O` [Compound I-2, (2S,3R,4R,5S,6R)-2-(3-(4-(benzofuran-2-ylmethoxy)benzyl)-4-fluorophenyl)-6-(hydroxymethyl)tetrahydro-2H-pyran-3,4,5-triol]: 0.015 µM and 2.54 µM. Taken in the same sequence, the figures for `Cc1ccc([C@@H]2O[C@H](CO)[C@@H](O)[C@H](O)[C@H]2O)cc1Cc1ccc(OCC2(C)Cc3ccccc3O2)cc1` (single isomer, unassigned) [Compound I-111] were > 2 µM and 34.4 µM. Molecule `OC[C@H]1O[C@@H](c2ccc(Cl)c(Cc3ccc(OCCC4Cc5ccccc5O4)cc3)c2)[C@H](O)[C@@H](O)[C@@H]1O` (stereo partly drawn) [Compound I-60, (2S,3R,4R,5S,6R)-2-(4-chloro-3-(4-(2-(2,3-dihydrobenzofuran-2-yl)ethoxy)benzyl)phenyl)-6-(hydroxymethyl)tetrahydro-2H-pyran-3,4,5-triol] had an IC50 against SGLT-2 of 0.038 µM. Regarding `Cc1ccc([C@@H]2O[C@H](CO)[C@@H](O)[C@H](O)[C@H]2O)cc1Cc1ccc(OCC2Cc3ccccc3O2)cc1` (single isomer, unassigned) [Compound I-27], the IC50 at SGLT-2 came to 0.0043 µM; against SGLT-1, 0.396 µM.

As for `OC[C@H]1O[C@@H](c2ccc(Cl)c(Cc3ccc(OCc4cc5cc(F)ccc5o4)cc3)c2)[C@H](O)[C@@H](O)[C@@H]1O` [Compound I-8, (2S,3R,4R,5S,6R)-2-(4-chloro-3-(4-((5-fluorobenzofuran-2-yl)methoxy)benzyl)phenyl)-6-(hydroxymethyl)tetrahydro-2H-pyran-3,4,5-triol], the IC50 came to 0.025 µM at SGLT-2 and 1.44 µM against SGLT-1.

With `CC1(COc2ccc(Cc3cc([C@@H]4O[C@H](CO)[C@@H](O)[C@H](O)[C@H]4O)ccc3Cl)cc2)OCc2ccccc21` (stereo partly drawn) [Compound I-108, (2S,3R,4R,5S,6R)-2-(4-chloro-3-(4-((1-methyl-1,3-dihydroisobenzofuran-1-yl)methoxy)benzyl)phenyl)-6-(hydroxymethyl)tetrahydro-2H-pyran-3,4,5-triol], the IC50 amounted to 0.0102 µM on SGLT-2 and 1.81 µM against SGLT-1. The matching figures for `COc1ccc([C@@H]2O[C@H](CO)[C@@H](O)[C@H](O)[C@H]2O)cc1Cc1ccc(OCc2cc3ccccc3o2)cc1` [Compound I-5, (2S,3R,4R,5S,6R)-2-(3-(4-(benzofuran-2-ylmethoxy)benzyl)-4-methoxyphenyl)-6-(hydroxymethyl)tetrahydro-2H-pyran-3,4,5-triol]: 0.018 µM and 1.51 µM.

`OC[C@H]1O[C@@H](c2ccc(F)c(Cc3ccc(OCC4Cc5ccccc5O4)cc3)c2)[C@H](O)[C@@H](O)[C@@H]1O` (stereo partly drawn) [Compound I-21, (2S,3R,4R,5S,6R)-2-(3-(4-((2,3-dihydrobenzofuran-2-yl)methoxy)benzyl)-4-fluorophenyl)-6-(hydroxymethyl)tetrahydro-2H-pyran-3,4,5-triol]: the figures for the IC50 against SGLT-2 and on SGLT-1 were 0.013 µM and 4.3 µM, respectively. Consider `CC1(C)OC(COc2ccc(Cc3cc([C@@H]4O[C@H](CO)[C@@H](O)[C@H](O)[C@H]4O)ccc3Cl)cc2)c2ccccc21` (stereo partly drawn) [Compound I-63, (2S,3R,4R,5S,6R)-2-(4-chloro-3-(4-((3,3-dimethyl-1,3-dihydroisobenzofuran-1-yl)methoxy)benzyl)phenyl)-6-(hydroxymethyl)tetrahydro-2H-pyran-3,4,5-triol], for which the IC50 against SGLT-2 stood at 0.0056 µM. Still for that read-out and setting: the same measure for `OC[C@H]1O[C@@H](c2cccc(Cc3ccc(OCc4cc5ccccc5o4)cc3)c2)[C@H](O)[C@@H](O)[C@@H]1O` [Compound I-6, (2S,3R,4R,5S,6R)-2-(3-(4-(benzofuran-2-ylmethoxy)benzyl)phenyl)-6-(hydroxymethyl)tetrahydro-2H-pyran-3,4,5-triol]: 0.036 µM.
